What all share (format): biochemical
Experiment [1] has as its target T1, calpain-I isolated from human erythrocytes (Homo sapiens, UniProt P07384).
T1 construct: calpain-I—isolated from human erythrocytes; purchased Calbiochem 208713; host or cells: human erythrocytes (tissue isolate)
T1 sequence (P07384 1-714): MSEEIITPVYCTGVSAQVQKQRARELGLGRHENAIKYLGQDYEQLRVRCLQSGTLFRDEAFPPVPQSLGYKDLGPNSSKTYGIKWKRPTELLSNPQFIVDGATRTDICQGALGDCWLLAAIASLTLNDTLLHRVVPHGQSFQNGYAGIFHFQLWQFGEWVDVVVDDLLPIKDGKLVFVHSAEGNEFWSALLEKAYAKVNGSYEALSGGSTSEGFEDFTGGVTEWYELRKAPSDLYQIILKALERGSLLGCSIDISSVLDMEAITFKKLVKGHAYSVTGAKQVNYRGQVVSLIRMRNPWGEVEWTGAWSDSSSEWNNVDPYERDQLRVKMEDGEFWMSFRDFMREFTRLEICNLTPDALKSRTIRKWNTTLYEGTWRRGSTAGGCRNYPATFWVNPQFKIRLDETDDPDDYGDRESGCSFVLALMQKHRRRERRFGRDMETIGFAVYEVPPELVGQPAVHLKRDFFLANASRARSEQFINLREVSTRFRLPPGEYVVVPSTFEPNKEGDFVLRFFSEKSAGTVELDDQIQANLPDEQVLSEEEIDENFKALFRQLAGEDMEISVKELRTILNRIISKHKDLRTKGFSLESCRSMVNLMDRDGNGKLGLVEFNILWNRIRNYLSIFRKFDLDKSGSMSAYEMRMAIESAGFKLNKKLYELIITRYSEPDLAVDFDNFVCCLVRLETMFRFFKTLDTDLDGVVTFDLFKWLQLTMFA
T1 sequence (P04632 1-268 partner): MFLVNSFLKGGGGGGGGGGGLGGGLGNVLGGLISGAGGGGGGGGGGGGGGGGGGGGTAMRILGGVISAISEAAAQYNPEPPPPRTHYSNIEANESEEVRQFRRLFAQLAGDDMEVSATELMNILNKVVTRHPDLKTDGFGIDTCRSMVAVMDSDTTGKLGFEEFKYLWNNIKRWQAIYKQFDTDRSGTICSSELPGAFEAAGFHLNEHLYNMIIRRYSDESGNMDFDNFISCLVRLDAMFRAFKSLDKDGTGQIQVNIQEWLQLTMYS
In words: Calpain I kinetic fluorescence enzyme inhibition assay. The following applies: apparent Ki from IC50 by Cheng-Prussoff; average of 2 to 4 dose-effect plots.

Experiment [2] has as its target T2, cathepsin L isolated from human liver (Homo sapiens, UniProt P07711).
T2 construct: cathepsin L—isolated from human liver; purchased Calbiochem 219402; host or cells: human liver (tissue isolate)
The experiment in a line: Cathepsin L kinetic fluorescence enzyme inhibition assay. The following applies: selectivity ratio versus calpain I. The method in brief: (§1)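 Inhibition is measured at room temperature in cysteine-containing MES buffer, pH 6.0, by continuous fluorescence at 460 nm. Cathepsin S (0.5 nM) uses 20 μM Z-Val-Val-Arg-AMC; L (1 nM) and B (0.25 nM) use Z-Phe-Arg-AMC at 2 and 100 μM respectively.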

In experiment [3] the target is T3, cathepsin K activated from recombinant human procathepsin K (Homo sapiens, UniProt P43235).
T3 construct: purchased Calbiochem 342001; host or cells: E. coli
T3 sequence (P43235 115-329): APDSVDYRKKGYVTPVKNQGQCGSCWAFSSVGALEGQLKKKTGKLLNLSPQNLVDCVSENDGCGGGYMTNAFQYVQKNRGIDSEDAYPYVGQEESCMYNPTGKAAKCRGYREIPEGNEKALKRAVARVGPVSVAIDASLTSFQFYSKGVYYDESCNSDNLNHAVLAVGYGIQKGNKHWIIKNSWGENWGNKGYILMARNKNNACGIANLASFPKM
In words: Cathepsin K kinetic fluorescence enzyme inhibition assay. The following applies: selectivity ratio versus calpain I.

Experiment [4] addresses T4, recombinant human cathepsin S (Homo sapiens, UniProt P25774).
T4 construct: purchased Calbiochem 219343; host or cells: E. coli
The experiment in a line: Cathepsin S kinetic fluorescence enzyme inhibition assay. The following applies: selectivity ratio versus calpain I. In a few lines: as §1

In experiment [5] the target is T5, cathepsin B isolated from human liver (Homo sapiens, UniProt P07858).
T5 construct: cathepsin B—isolated from human liver; purchased Calbiochem 219362; host or cells: human liver (tissue isolate)
The experiment in a line: Cathepsin B kinetic fluorescence enzyme inhibition assay. The following applies: selectivity ratio versus calpain I. The method in brief: as §1

T2 sequence (P07711 114-333): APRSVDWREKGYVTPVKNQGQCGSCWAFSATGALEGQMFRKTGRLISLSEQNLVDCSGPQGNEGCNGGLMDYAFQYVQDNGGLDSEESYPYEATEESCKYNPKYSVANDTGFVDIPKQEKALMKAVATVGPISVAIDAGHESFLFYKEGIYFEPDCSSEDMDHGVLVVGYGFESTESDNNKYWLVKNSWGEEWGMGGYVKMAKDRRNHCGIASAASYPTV
T4 sequence (P25774 115-331): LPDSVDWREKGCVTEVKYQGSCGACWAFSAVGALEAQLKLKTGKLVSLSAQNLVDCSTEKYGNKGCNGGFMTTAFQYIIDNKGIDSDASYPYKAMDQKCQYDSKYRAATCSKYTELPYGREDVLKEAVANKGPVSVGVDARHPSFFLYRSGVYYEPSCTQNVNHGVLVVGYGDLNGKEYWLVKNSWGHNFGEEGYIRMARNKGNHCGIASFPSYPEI

Take `COc1c(C)cc(C)cc1-c1ccn(-c2ncccc2C(=O)NC(Cc2ccccc2)C(=O)C(N)=O)n1` (centres unmarked) [Example 121, N-[3-Amino-2,3-dioxo-1-(phenylmethyl)propyl]-2-{3-[3,5-dimethyl-2-(methyloxy)phenyl]-1H-pyrazol-1-yl}pyridine-3-carboxamide]: the Ki in experiment [1] is ≤ 40 nM. Besides, in experiment [2], the “Sel cat. L (Ki(cathepsin L)/Ki(calpain) ratio)” value is on record as “++ (Ki(cathepsin L)/Ki(calpain) ratio of ≧50)”. Also, the “Sel cat. K (Ki(cathepsin K)/Ki(calpain) ratio)” value in experiment [3] is given as “++ (Ki(cathepsin K)/Ki(calpain) ratio of ≧30)”. Moreover, in experiment [4], the “Sel cat. S (Ki(cathepsin S)/Ki(calpain) ratio)” value is “++ (Ki(cathepsin S)/Ki(calpain) ratio of ≧100)”. In experiment [5], the “Sel cat. B (Ki(cathepsin B)/Ki(calpain) ratio)” value is on record as “++ (Ki(cathepsin B)/Ki(calpain) ratio of ≧30)”.

On to `NC(=O)C(=O)C(Cc1ccc(F)cc1)NC(=O)c1cccnc1-n1ccc(-c2ccccc2)n1` (centres unmarked) [Example 123, N-{3-Amino-1-[(4-fluorophenyl)methyl]-2,3-dioxopropyl}-2-(3-phenyl-1H-pyrazol-1-yl)pyridine-3-carboxamide], for which, in experiment [1], the Ki was ≤ 40 nM. In addition, in experiment [2], the “Sel cat. L (Ki(cathepsin L)/Ki(calpain) ratio)” value is reported as “++ (Ki(cathepsin L)/Ki(calpain) ratio of ≧50)”. Moreover, in experiment [3], the “Sel cat. K (Ki(cathepsin K)/Ki(calpain) ratio)” value was “++ (Ki(cathepsin K)/Ki(calpain) ratio of ≧30)”. Besides, the “Sel cat. S (Ki(cathepsin S)/Ki(calpain) ratio)” value in experiment [4] is recorded as “++ (Ki(cathepsin S)/Ki(calpain) ratio of ≧100)”. Also, the “Sel cat. B (Ki(cathepsin B)/Ki(calpain) ratio)” value in experiment [5] is recorded as “++ (Ki(cathepsin B)/Ki(calpain) ratio of ≧30)”.

In the case of `NC(=O)C(=O)C(Cc1ccccc1)NC(=O)c1cccnc1-n1ccc(-c2ccccc2OC(F)(F)F)n1` (centres unmarked) [Example 124, N-[3-Amino-2,3-dioxo-1-(phenylmethyl)propyl]-2-(3-{2-[(trifluoromethyl)oxy]phenyl}-1H-pyrazol-1-yl)pyridine-3-carboxamide], the Ki in experiment [1] is ≤ 40 nM. For the same molecule, in experiment [2], the “Sel cat. L (Ki(cathepsin L)/Ki(calpain) ratio)” value is “++ (Ki(cathepsin L)/Ki(calpain) ratio of ≧50)”. The “Sel cat. K (Ki(cathepsin K)/Ki(calpain) ratio)” value in experiment [3] is given as “++ (Ki(cathepsin K)/Ki(calpain) ratio of ≧30)”. For the same molecule, the “Sel cat. S (Ki(cathepsin S)/Ki(calpain) ratio)” value in experiment [4] was “++ (Ki(cathepsin S)/Ki(calpain) ratio of ≧100)”. The “Sel cat. B (Ki(cathepsin B)/Ki(calpain) ratio)” value in experiment [5] was “++ (Ki(cathepsin B)/Ki(calpain) ratio of ≧30)”.

Take `COc1cc(F)ccc1-c1ccn(-c2ncccc2C(=O)NC(Cc2ccccc2)C(=O)C(N)=O)n1` (centres unmarked) [Example 125, N-[3-Amino-2,3-dioxo-1-(phenylmethyl)propyl]-2-{3-[4-fluoro-2-(methyloxy)phenyl]-1H-pyrazol-1-yl}pyridine-3-carboxamide]: the Ki in experiment [1] is ≤ 40 nM. Moreover, in experiment [2], the “Sel cat. L (Ki(cathepsin L)/Ki(calpain) ratio)” value is “++ (Ki(cathepsin L)/Ki(calpain) ratio of ≧50)”. The “Sel cat. K (Ki(cathepsin K)/Ki(calpain) ratio)” value in experiment [3] is given as “++ (Ki(cathepsin K)/Ki(calpain) ratio of ≧30)”. In addition, the “Sel cat. S (Ki(cathepsin S)/Ki(calpain) ratio)” value in experiment [4] is recorded as “++ (Ki(cathepsin S)/Ki(calpain) ratio of ≧100)”. Further, the “Sel cat. B (Ki(cathepsin B)/Ki(calpain) ratio)” value in experiment [5] was “++ (Ki(cathepsin B)/Ki(calpain) ratio of ≧30)”.

As for `NC(=O)C(=O)C(Cc1ccc(OCc2ccccc2)cc1)NC(=O)c1cccnc1-n1ccc(-c2ccccc2)n1` (centres unmarked) [Example 127, N-[3-Amino-2,3-dioxo-1-({4-[(phenylmethyl)oxy]phenyl}methyl)propyl]-2-(3-phenyl-1H-pyrazol-1-yl)pyridine-3-carboxamide], the Ki in experiment [1] is ≤ 40 nM. The “Sel cat. L (Ki(cathepsin L)/Ki(calpain) ratio)” value in experiment [2] is listed as “++ (Ki(cathepsin L)/Ki(calpain) ratio of ≧50)”. In addition, the “Sel cat. K (Ki(cathepsin K)/Ki(calpain) ratio)” value in experiment [3] was “++ (Ki(cathepsin K)/Ki(calpain) ratio of ≧30)”. Moreover, the “Sel cat. S (Ki(cathepsin S)/Ki(calpain) ratio)” value in experiment [4] is “++ (Ki(cathepsin S)/Ki(calpain) ratio of ≧100)”. Also, the “Sel cat. B (Ki(cathepsin B)/Ki(calpain) ratio)” value in experiment [5] was “++ (Ki(cathepsin B)/Ki(calpain) ratio of ≧30)”.

Take `COc1ccc(F)cc1-c1ccn(-c2ncccc2C(=O)NC(Cc2ccccc2)C(=O)C(N)=O)n1` (centres unmarked) [Example 130, N-[3-Amino-2,3-dioxo-1-(phenylmethyl)propyl]-2-{3-[5-fluoro-2-(methyloxy)phenyl]-1H-pyrazol-1-yl}pyridine-3-carboxamide]: the Ki in experiment [1] was ≤ 40 nM. Also, the “Sel cat. L (Ki(cathepsin L)/Ki(calpain) ratio)” value in experiment [2] is listed as “++ (Ki(cathepsin L)/Ki(calpain) ratio of ≧50)”. Besides, in experiment [3], the “Sel cat. K (Ki(cathepsin K)/Ki(calpain) ratio)” value was “++ (Ki(cathepsin K)/Ki(calpain) ratio of ≧30)”. In experiment [4], the “Sel cat. S (Ki(cathepsin S)/Ki(calpain) ratio)” value is “++ (Ki(cathepsin S)/Ki(calpain) ratio of ≧100)”. Moreover, the “Sel cat. B (Ki(cathepsin B)/Ki(calpain) ratio)” value in experiment [5] is “++ (Ki(cathepsin B)/Ki(calpain) ratio of ≧30)”.

Regarding `COc1ccc(Cl)cc1-c1ccn(-c2ncccc2C(=O)NC(Cc2ccccc2)C(=O)C(N)=O)n1` (centres unmarked) [Example 131, N-[3-Amino-2,3-dioxo-1-(phenylmethyl)propyl]-2-{3-[5-chloro-2-(methyloxy)phenyl]-1H-pyrazol-1-yl}pyridine-3-carboxamide], in experiment [1], the Ki was ≤ 40 nM. In addition, in experiment [2], the “Sel cat. L (Ki(cathepsin L)/Ki(calpain) ratio)” value is “++ (Ki(cathepsin L)/Ki(calpain) ratio of ≧50)”. Moreover, in experiment [3], the “Sel cat. K (Ki(cathepsin K)/Ki(calpain) ratio)” value is “++ (Ki(cathepsin K)/Ki(calpain) ratio of ≧30)”. In addition, in experiment [4], the “Sel cat. S (Ki(cathepsin S)/Ki(calpain) ratio)” value is “++ (Ki(cathepsin S)/Ki(calpain) ratio of ≧100)”. Moreover, in experiment [5], the “Sel cat. B (Ki(cathepsin B)/Ki(calpain) ratio)” value is recorded as “++ (Ki(cathepsin B)/Ki(calpain) ratio of ≧30)”.

In the case of `NC(=O)C(=O)C(Cc1ccc(OC(F)(F)F)cc1)NC(=O)c1cccnc1-n1ccc(-c2ccc(F)cc2)n1` (centres unmarked) [Example 132, N-[3-Amino-2,3-dioxo-1-({4-[(trifluoromethyl)oxy]phenyl}methyl)propyl]-2-[3-(4-fluorophenyl)-1H-pyrazol-1-yl]pyridine-3-carboxamide], the Ki in experiment [1] was in the range of 40 to 100 nM. In addition, in experiment [2], the “Sel cat. L (Ki(cathepsin L)/Ki(calpain) ratio)” value is given as “++ (Ki(cathepsin L)/Ki(calpain) ratio of ≧50)”. Besides, in experiment [3], the “Sel cat. K (Ki(cathepsin K)/Ki(calpain) ratio)” value was “++ (Ki(cathepsin K)/Ki(calpain) ratio of ≧30)”. Besides, the “Sel cat. S (Ki(cathepsin S)/Ki(calpain) ratio)” value in experiment [4] is “++ (Ki(cathepsin S)/Ki(calpain) ratio of ≧100)”. Besides, the “Sel cat. B (Ki(cathepsin B)/Ki(calpain) ratio)” value in experiment [5] was “+ (10≦Ki(cathepsin B)/Ki(calpain)<30)”.

As to `NC(=O)C(=O)C(Cc1ccc(OC(F)(F)F)cc1)NC(=O)c1cccnc1-n1ccc(-c2ccccc2)n1` (centres unmarked) [Example 133, N-[3-Amino-2,3-dioxo-1-({4-[(trifluoromethyl)oxy]phenyl}methyl)propyl]-2-(3-phenyl-1H-pyrazol-1-yl)pyridine-3-carboxamide], the Ki in experiment [1] was in the range of 40 to 100 nM. For the same molecule, in experiment [2], the “Sel cat. L (Ki(cathepsin L)/Ki(calpain) ratio)” value was “++ (Ki(cathepsin L)/Ki(calpain) ratio of ≧50)”. Further, the “Sel cat. K (Ki(cathepsin K)/Ki(calpain) ratio)” value in experiment [3] is recorded as “++ (Ki(cathepsin K)/Ki(calpain) ratio of ≧30)”. Also, the “Sel cat. S (Ki(cathepsin S)/Ki(calpain) ratio)” value in experiment [4] is given as “++ (Ki(cathepsin S)/Ki(calpain) ratio of ≧100)”. Also, the “Sel cat. B (Ki(cathepsin B)/Ki(calpain) ratio)” value in experiment [5] was “++ (Ki(cathepsin B)/Ki(calpain) ratio of ≧30)”.

Take `COc1ccc(CC(NC(=O)c2cccnc2-n2ccc(-c3cccc4ccccc34)n2)C(=O)C(N)=O)cc1` (centres unmarked) [Example 135, N-(3-Amino-1-{[4-(methyloxy)phenyl]methyl}-2,3-dioxopropyl)-2-(3-naphthalen-1-yl-1H-pyrazol-1-yl)pyridine-3-carboxamide]: the Ki in experiment [1] was ≤ 40 nM. For the same molecule, the “Sel cat. L (Ki(cathepsin L)/Ki(calpain) ratio)” value in experiment [2] is reported as “++ (Ki(cathepsin L)/Ki(calpain) ratio of ≧50)”. Moreover, the “Sel cat. K (Ki(cathepsin K)/Ki(calpain) ratio)” value in experiment [3] is “++ (Ki(cathepsin K)/Ki(calpain) ratio of ≧30)”. In addition, the “Sel cat. S (Ki(cathepsin S)/Ki(calpain) ratio)” value in experiment [4] was “++ (Ki(cathepsin S)/Ki(calpain) ratio of ≧100)”. Moreover, the “Sel cat. B (Ki(cathepsin B)/Ki(calpain) ratio)” value in experiment [5] is recorded as “++ (Ki(cathepsin B)/Ki(calpain) ratio of ≧30)”.

Values taken from patent publication US7728012B2, “Carboxamide compounds and their use as calpain inhibitors” (Abbott GmbH & Co. KG, priority 2006, dated 2010).
